Measurements from publication PMC11894060, “Accelerating discovery of bioactive ligands with pharmacophore-informed generative models” (Nature Communications, 2025).
Where two headings read alike, the source gives them in different places.

How the values were obtained:
PLK1 [1] = biological target: T1, PLK1 (Homo sapiens, UniProt P53350); design: method as in ExCAPE-DB [85]; details: known PLK1 ligands carrying the core substructures; ref ExCAPE-DB [85]; cited from earlier work
PLK1 [2] = biological target: T1, PLK1; experiment: PLK1 kinase ADP-Glo assay (in vitro kinase activity); format: biochemical; design: 2 μl of PLK1 enzyme (15 ng/well); details: for selectivity for PLK1 compared to other Plks (in words): PLK1 vs PLK2/PLK3
Protocol: (§1) In vitro kinase activity assays were conducted through ADP-Glo assay services provided by Conradbio (Conradbio, China). The protocol for the PLK1 assay is described as follows (protocols for other kinases are very similar). Enzyme, substrate, ATP, and compounds were diluted in a Kinase Buffer composed of 40 mM Tris (pH 7.5), 20 mM MgCl2, 0.1 mg/ml BSA, and 50 μM DTT. In a 384-well low-volume plate, 1 μl of the compound or 5% dimethyl sulfoxide (DMSO), 2 μl of PLK1 enzyme (15 ng/well), and 2 μl of substrate/ATP mix (final concentration: 20 μM ATP, 0.2 μg/μl Casein) were added to each well. The plate was then incubated at 25 °C for 60 min to allow for kinase activity. Following the enzymatic reaction, 5 μl of ADP-Glo^TM Reagent was added to each well, and the plate was incubated at 25 °C for an additional 40 min. Subsequently, 10 μl of Kinase Detection Reagent was added, and the plate was incubated for a final 30 min at 25 °C. Luminescence was recorded with an integration time of 0.5 s.
(§2) IC50 values were calculated using Prism 8 by fitting the following equation:4 Y=Bottom+(Top−Bottom)/(1+10^(logIC50−X)×HillSlope), where X is a log of concentration, Y is a response, and top and bottom are the responses of controls. Each assay was repeated at least three times, and we computed the mean and standard deviation for the values.

PLK2 [3] = biological target: T2, PLK2 (Homo sapiens, UniProt Q9NYY3); experiment: PLK2 ADP-Glo kinase assay (selectivity); format: biochemical; details: read-out: IC50 against PLK2
T2 sequence (Q9NYY3 whole entry): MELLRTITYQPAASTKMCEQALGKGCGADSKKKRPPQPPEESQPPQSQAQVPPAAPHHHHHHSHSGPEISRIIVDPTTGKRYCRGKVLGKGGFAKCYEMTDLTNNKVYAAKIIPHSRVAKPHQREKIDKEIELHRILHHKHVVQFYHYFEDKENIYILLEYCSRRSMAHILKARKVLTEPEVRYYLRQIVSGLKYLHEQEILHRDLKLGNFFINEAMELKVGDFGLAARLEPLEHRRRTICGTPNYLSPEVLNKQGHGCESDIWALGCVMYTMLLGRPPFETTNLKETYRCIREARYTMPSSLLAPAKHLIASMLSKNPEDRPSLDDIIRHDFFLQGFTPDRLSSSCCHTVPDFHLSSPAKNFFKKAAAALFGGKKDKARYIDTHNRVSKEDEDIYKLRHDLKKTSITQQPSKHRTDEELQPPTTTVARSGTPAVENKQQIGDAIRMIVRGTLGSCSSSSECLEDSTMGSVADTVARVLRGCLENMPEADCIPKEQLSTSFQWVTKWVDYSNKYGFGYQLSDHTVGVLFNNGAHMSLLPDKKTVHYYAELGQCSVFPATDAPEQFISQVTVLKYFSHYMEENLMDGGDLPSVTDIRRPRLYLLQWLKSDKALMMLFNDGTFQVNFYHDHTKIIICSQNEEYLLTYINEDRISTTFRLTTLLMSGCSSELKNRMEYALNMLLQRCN
Protocol: as §1, §2

FAK kinase = FAK kinase (Homo sapiens, UniProt Q05397); experiment: FAK ADP-Glo kinase assay (selectivity); format: biochemical; details: for IC50: ADP-Glo assay, read-out: IC50 against FAK; for selectivity for PLK1 over FAK: FAK IC50 versus PLK1 IC50
FAK kinase, sequence (Q05397 whole entry): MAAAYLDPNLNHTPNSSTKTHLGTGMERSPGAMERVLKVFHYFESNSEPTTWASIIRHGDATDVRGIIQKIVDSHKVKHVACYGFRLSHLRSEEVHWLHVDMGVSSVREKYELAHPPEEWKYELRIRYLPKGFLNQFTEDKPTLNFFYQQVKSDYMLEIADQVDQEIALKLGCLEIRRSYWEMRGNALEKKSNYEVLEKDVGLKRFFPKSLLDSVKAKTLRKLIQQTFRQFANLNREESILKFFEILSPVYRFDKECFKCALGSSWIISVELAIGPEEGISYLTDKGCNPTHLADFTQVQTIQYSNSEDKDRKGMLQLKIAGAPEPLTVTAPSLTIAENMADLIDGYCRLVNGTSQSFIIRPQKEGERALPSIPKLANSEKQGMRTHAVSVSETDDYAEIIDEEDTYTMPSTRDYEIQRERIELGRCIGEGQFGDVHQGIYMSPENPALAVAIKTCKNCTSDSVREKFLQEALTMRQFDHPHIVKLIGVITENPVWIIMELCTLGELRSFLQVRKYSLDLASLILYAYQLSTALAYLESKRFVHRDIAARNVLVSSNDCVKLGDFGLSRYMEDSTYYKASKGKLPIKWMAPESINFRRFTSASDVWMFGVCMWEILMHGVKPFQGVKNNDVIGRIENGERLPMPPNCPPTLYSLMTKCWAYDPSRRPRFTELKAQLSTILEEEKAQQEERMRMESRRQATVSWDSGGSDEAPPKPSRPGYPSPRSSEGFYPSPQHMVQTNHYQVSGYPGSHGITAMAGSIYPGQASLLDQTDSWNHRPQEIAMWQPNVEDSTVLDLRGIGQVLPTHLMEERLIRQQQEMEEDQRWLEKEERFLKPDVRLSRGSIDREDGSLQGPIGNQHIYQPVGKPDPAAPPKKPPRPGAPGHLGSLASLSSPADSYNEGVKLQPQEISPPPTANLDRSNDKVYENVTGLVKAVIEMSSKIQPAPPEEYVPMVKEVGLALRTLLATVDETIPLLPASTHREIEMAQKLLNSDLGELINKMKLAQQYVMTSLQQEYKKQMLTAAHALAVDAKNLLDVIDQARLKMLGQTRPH
Protocol: as §1, §2

PLK3 [4] = biological target: T3, PLK3 (Homo sapiens, UniProt Q9H4B4); experiment: PLK3 ADP-Glo kinase assay (selectivity); format: biochemical; details: read-out: IC50 against PLK3
T3 sequence (Q9H4B4 whole entry): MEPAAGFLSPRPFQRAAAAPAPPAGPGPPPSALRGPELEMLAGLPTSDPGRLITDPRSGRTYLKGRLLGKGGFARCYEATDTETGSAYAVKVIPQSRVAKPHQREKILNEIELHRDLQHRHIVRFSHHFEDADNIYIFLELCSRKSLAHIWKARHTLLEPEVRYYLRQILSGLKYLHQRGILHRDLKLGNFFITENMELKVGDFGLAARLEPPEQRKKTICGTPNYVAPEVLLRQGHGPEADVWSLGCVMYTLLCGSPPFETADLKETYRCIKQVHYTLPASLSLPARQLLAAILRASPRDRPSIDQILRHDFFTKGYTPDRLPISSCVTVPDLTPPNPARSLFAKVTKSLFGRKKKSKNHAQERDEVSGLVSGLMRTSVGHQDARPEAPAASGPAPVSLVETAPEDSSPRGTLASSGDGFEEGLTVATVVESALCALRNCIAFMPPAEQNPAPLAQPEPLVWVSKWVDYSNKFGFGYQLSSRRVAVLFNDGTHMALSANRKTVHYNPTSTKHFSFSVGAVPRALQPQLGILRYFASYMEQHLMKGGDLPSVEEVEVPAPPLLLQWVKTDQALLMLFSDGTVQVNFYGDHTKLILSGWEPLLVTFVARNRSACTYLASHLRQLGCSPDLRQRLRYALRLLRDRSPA
Protocol: as §1, §2

[5] = Preliminary in vivo pharmacokinetic experiments in mice
HCT116 cell line = experiment: CellTiter-Glo cell viability assay on HCT116; format: cell-based, human
Protocol: Cell viability assays were conducted through CellTiter-Glo assay services provided by Conradbio (Conradbio, China). The protocol is briefly described as follows. Firstly, when the cell confluence reaches 80%, cells are collected and counted. Subsequently, a cell suspension is diluted, and 80 μl of the suspension is seeded into each well of a 96-well U-bottom plate. The plate is then placed in a 37 °C, 5% CO2 incubator for optimal cell growth. After 24 h of incubation, a 20 μl aliquot of a diluted compound solution is added to specific wells on the plate, 0.5% dimethyl sulfoxide (DMSO) is used as a negative control. Following the compound addition, the plate is returned to the incubator for an additional day. Upon completion of the incubation period, the CellTiter-Glo assay (Promega) is performed according to the manufacturer’s manual. This assay is designed to measure cell viability based on luminescence, providing insights into the impact of the compounds on cellular health. Finally, data calculation is carried out to analyze the results of the CTG assay using Prism 8.

PLK1 [6] = biological target: T1, PLK1; experiment: In-house enzymatic activity (peer review response); format: biochemical; details: Onvansertib vs. Volasertib
PLK3 [7] = biological target: T3, PLK3; experiment: Activity against PLK3 (peer review response); format: biochemical; details: source not stated
PLK2 [8] = biological target: T2, PLK2; experiment: Activity against PLK2 (peer review response); format: biochemical
[9] = ADP-Glo assay, mean ± standard deviation, n = 3 replicates, read-out: IC50 against PLK1
[10] = ADP-Glo assay, read-out: IC50 against PLK1 (bound stated in text)
[11] = IC50 with 90% confidence interval, read-out: 90% CI of IC50 against PLK1
[12] = IC50 with 95% confidence interval, read-out: 95% CI of IC50 against PLK1
[13] = IC50 with 99% confidence interval, read-out: 99% CI of IC50 against PLK1

T1 sequence (P53350 whole entry): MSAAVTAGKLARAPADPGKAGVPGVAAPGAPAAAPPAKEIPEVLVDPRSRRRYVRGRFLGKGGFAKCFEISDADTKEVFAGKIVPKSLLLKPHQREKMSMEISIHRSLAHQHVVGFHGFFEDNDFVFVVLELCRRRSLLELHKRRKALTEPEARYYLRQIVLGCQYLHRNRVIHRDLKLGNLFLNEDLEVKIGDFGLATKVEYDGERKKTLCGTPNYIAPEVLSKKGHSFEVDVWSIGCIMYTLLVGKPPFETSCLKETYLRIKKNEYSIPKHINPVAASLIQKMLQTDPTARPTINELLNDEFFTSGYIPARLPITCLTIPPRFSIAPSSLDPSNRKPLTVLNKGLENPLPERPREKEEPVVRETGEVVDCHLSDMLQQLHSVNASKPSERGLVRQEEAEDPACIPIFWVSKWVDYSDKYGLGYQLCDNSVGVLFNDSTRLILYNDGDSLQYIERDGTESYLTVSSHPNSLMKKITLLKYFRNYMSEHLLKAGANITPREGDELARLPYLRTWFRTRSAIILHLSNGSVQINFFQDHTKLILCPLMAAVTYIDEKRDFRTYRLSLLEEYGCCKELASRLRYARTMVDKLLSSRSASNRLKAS

IC50 (PLK1 [2]; [9]) [nM] | IC50 (PLK1 [2]; [10]) [nM] | IC50 (PLK1 [2]; [11]) [nM] | IC50 (PLK1 [2]; [12]) [nM] | IC50 (PLK1 [2]; [13]) [nM] | Compound | pXC50 (PLK1 [1]) | also measured
927 ± 129 | < 1000 | 928 ± 122 | 928 ± 146 | 928 ± 192 | COc1ccc(N2CCN(C)CC2)cc1Nc1ncc(C)c(Oc2ccccc2-n2ccnn2)n1 [IIP0945] |  | 
37.6 | < 1000 | 37.6 ± 3.55 | 37.6 ± 4.23 | 37.6 ± 5.56 | COc1ccc(N2CCN(C)CC2)cc1Nc1ncc(C(F)(F)F)c(Oc2cccc3[nH]c(C(N)=O)cc23)n1 [IIP0942] |  | selectivity for PLK1 compared to other Plks (in words) (PLK1 [2]): excellent; IC50 (PLK2 [3]): > 1000 nM; IC50 (FAK kinase): 87.4 nM; selectivity for PLK1 over FAK (FAK kinase): over two-fold; IC50 (PLK3 [4]): > 1000 nM
5.1 | < 1000 | 5.06 ± 1.64 | 5.06 ± 1.96 | 5.06 ± 2.57 | COc1ccc(N2CCN(C)CC2)cc1Nc1ncc(C)c(Oc2cccc3cc(C(N)=O)sc23)n1 [IIP0943] |  | selectivity for PLK1 compared to other Plks (in words) (PLK1 [2]): high and excellent; IC50 (PLK2 [3]): > 1000 nM; half-life compared to Onvansertib (in words) [5]: prolonged half-life; oral bioavailability compared to Onvansertib ([5]; ratio to Onvansertib): over two-fold; IC50 (FAK kinase): 264 nM; selectivity for PLK1 over FAK (FAK kinase): over 50 fold; inhibitory activity in HCT116 cell proliferation (in words) (HCT116 cell line; HCT116 cell line): submicromolar; IC50 (HCT116 cell line; Homo sapiens, HCT-116, CellTiter-Glo, mean ± standard deviation, n = 3 replicates, read-out: IC50 of cell proliferation inhibition, HCT116): 220 ± 3 nM; IC50 (PLK3 [4]): > 1000 nM
> 10000 |  |  |  |  | COc1ccc(N2CCN(C)CC2)cc1Nc1ncc2ccn(-c3ccccc3-c3nc(C)no3)c2n1 [IIP0944] |  | 

The remaining lines, values behind:

Compound | IC50 (PLK1 [2]; [9]) [nM] | IC50 (PLK1 [2]; [10]) [nM] | IC50 (PLK1 [2]; [11]) [nM] | IC50 (PLK1 [2]; [12]) [nM] | IC50 (PLK1 [2]; [13]) [nM] | pXC50 (PLK1 [1]) | also measured
COc1cc2c(cc1Nc1nc(Nc3ccsc3C(N)=O)c3cc[nH]c3n1)N(C(=O)CN(C)C)CCC2 [GSK-2110236A] |  |  |  |  |  | 7.6 | 
CCS(=O)(=O)c1ccc2oc(Nc3ccc(C(C)C)cc3)nc2c1 [PubChem CID 2462953] |  |  |  |  |  | 5.6 | 
CC[C@@H]1C(=O)N(C)c2cnc(Nc3ccc(C(=O)N[C@H]4CC[C@H](N5CCN(CC6CC6)CC5)CC4)cc3OC)nc2N1C(C)C [Volasertib] |  |  |  |  |  |  | enzymatic activity, in-house experiments (PLK1 [6]): 0.30 nM; activity against PLK3 (in words) (PLK3 [7]): low nanomolar; selectivity compared to Onvansertib (in words) (PLK2 [8]; PLK1 vs PLK2 and PLK3): much worse selectivity; activity against PLK2 (in words) (PLK2 [8]; source not stated): low nanomolar
Cc1cc(Oc2ccc(C#N)cc2)nc(NCc2ccccc2)n1 [PubChem CID 1927680] |  |  |  |  |  | 5.6 | 
